Results on 32 compounds are retold here after patent US20120264735A1 (priority 2009, published 2012).

A value given as a limit tells only on which side of the number the result lay.

The target of the assay is T1, c-Met kinase (recombinant c-Met) (Homo sapiens, UniProt P08581).
T1 construct: 0.27 nM recombinant c-Met
T1 sequence (P08581 25-1390): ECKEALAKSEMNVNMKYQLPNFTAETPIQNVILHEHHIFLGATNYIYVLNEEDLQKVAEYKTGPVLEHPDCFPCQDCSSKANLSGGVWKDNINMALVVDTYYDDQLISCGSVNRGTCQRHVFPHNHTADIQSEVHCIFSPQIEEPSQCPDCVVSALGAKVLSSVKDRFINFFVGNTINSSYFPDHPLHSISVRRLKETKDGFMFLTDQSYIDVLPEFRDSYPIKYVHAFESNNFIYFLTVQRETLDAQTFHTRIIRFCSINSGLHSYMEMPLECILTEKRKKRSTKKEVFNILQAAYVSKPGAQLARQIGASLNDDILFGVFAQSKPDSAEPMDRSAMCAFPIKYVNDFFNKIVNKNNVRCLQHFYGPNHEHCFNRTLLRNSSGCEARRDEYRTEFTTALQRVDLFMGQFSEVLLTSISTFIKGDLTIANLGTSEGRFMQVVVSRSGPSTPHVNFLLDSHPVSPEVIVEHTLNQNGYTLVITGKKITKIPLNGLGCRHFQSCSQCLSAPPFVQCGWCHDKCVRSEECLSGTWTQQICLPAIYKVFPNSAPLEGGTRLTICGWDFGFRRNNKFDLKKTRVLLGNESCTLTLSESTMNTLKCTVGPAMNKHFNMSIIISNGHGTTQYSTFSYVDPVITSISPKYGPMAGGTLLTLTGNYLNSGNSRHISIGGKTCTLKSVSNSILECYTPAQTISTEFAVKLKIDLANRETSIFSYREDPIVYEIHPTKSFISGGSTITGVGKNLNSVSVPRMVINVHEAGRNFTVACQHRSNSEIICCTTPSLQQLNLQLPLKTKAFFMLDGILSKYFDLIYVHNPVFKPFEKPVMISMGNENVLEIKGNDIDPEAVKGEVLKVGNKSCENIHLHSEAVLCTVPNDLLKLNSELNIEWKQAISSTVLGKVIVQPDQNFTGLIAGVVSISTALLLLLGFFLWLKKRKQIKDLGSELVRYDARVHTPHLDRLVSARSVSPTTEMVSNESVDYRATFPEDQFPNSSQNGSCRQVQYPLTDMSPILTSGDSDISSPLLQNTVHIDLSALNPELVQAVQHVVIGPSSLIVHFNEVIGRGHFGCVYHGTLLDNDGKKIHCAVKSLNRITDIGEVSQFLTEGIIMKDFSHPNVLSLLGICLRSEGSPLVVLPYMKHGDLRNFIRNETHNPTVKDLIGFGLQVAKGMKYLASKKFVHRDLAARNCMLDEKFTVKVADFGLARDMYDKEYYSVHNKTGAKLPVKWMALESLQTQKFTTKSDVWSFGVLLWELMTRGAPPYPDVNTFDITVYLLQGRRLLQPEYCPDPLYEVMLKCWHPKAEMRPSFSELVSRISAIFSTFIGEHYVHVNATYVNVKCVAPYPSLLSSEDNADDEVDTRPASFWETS
Kind of assay: In vitro kinase assay I (homogeneous time-resolved fluorescence tyrosine kinase assay). It counts as biochemical. A digest of the protocol:
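Biotinylated peptide (0.5 μM) phosphorylated by 0.2 nM recombinant c-Met with 50 μM MgATP, 60 min at room temperature, pH 7.4, 5% DMSO. EDTA stop; HTRF read with Eu-anti-phosphotyrosine antibody and streptavidin-APC. IC50 from 4-parameter logistic fit.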
With `CCOc1cnc(-c2cccc(Cc3nn(-c4cnn(C5CN(C)C5)c4)ccc3=O)c2)nc1` [Example 668, 3-[3-(5-Ethoxypyrimidin-2-yl)benzyl]-1-[1-(1-methylazetidin-3-yl)-1H-pyrazol-4-yl]pyridazin-4(1H)-one], the IC50 was in the range of 100 to 1000 nM.
Next, `CCOc1cnc(-c2cccc(Cc3nn(-c4cccc(Br)c4)ccc3=O)c2)nc1` [Example 143, 1-(3-bromophenyl)-3-[3-(5-ethoxypyrimidin-2-yl)benzyl]pyridazin-4(1H)-one]: < 100 nM; `CN(CCOC(=O)Nc1cccc(Cc2nn(-c3cc(F)c(F)c(F)c3)ccc2=O)c1)c1ccccc1` [Example 550, 2-[methyl(phenyl)amino]ethyl (3-{[4-oxo-1-(3,4,5-trifluorophenyl)-1,4-dihydropyridazin-3-yl]methyl}phenyl)carbamate]: < 100 nM; `Cn1cc(-n2ccc(=O)c(Cc3cccc(-c4ncc(-c5ccc(N)nc5)cn4)c3)n2)cn1` [Example 419, 3-{3-[5-(6-aminopyridin-3-yl)pyrimidin-2-yl]benzyl}-1-(1-methyl-1H-pyrazol-4-yl)pyridazin-4(1H)-one]: < 100 nM.
As to `Cn1cc(-n2ccc(=O)c(Cc3cccc(NC(=O)Cc4ccccc4)c3)n2)cn1` [Example 632, N-(3-{[1-(1-methyl-1H-pyrazol-4-yl)-4-oxo-1,4-dihydropyridazin-3-yl]methyl}phenyl)-2-phenylacetamide], the IC50 fell in the range of 1000 to 3000 nM.
Consider `CCn1cc(-n2ccc(=O)c(Cc3cccc(-c4ncc(OCC(C)(C)O)cn4)c3)n2)cn1` [Example 359, 1-(1-ethyl-1H-pyrazol-4-yl)-3-{3-[5-(2-hydroxy-2-methylpropoxy)pyrimidin-2-yl]benzyl}pyridazin-4(1H)-one], for which the IC50 is < 100 nM.
`CCOc1cnc(-c2cccc(Cc3nn(-c4cccc(C#N)c4)ccc3=O)c2)nc1` [Example 72, 3-[3-[3-(5-ethoxypyrimidin-2-yl)benzyl]-4-oxopyridazin-1(4H)-yl]benzonitrile]: the half-maximal inhibitory concentration (IC50) was < 100 nM.
As to `CCCNc1cnc(-c2cccc(Cc3nn(-c4cnn(C)c4)ccc3=O)c2)nc1` [Example 451, 1-(1-Methyl-1H-pyrazol-4-yl)-3-{3-[5-(propylamino)pyrimidin-2-yl]benzyl}pyridazin-4(1H)-one], the concentration for half-maximal inhibition (IC50) was < 100 nM.
Consider `Cn1cc(-n2ccc(=O)c(Cc3cccc(-c4ncn(CCc5ccccc5)n4)c3)n2)cn1` [Example 715, 1-(1-methyl-1H-pyrazol-4-yl)-3-{3-[1-(2-phenylethyl)-1H-1,2,4-triazol-3-yl]benzyl}pyridazin-4(1H)-one], for which the IC50 fell in the range of 100 to 1000 nM.
In the case of `CCCC(=O)Nc1cccc(Cc2nn(-c3cnn(C)c3)ccc2=O)c1` [Example 634, N-(3-{[1-(1-methyl-1H-pyrazol-4-yl)-4-oxo-1,4-dihydropyridazin-3-yl]methyl}phenyl)butanamide], the IC50 lay in the range of 100 to 1000 nM.
As for `Cn1cc(-n2ccc(=O)c(Cc3cccc(-c4ncc(N5CCOCC5)cn4)c3)n2)cn1` [Example 472, 1-(1-methyl-1H-pyrazol-4-yl)-3-[3-(5-morpholin-4-ylpyrimidin-2-yl)benzyl]pyridazin-4(1H)-one], the 50% inhibitory concentration (IC50) is < 100 nM.
As to `CCn1cc(-n2ccc(=O)c(Cc3cccc(-c4ncc(OCc5noc(C)n5)cn4)c3)n2)cn1` [Example 314, 1-(1-ethyl-1H-pyrazol-4-yl)-3-(3-{5-[(5-methyl-1,2,4-oxadiazol-3-yl)methoxy]pyrimidin-2-yl}benzyl)pyridazin-4(1H)-one], the IC50 is < 100 nM.
Consider `Cn1cc(-n2ccc(=O)c(Cc3cccc(-c4ncc(C5CCCO5)cn4)c3)n2)cn1` (racemic) [Example 198, rac-1-(1-Methyl-1H-pyrazol-4-yl)-3-{3-[5-(tetrahydrofuran-2-yl)pyrimidin-2-yl]benzyl}pyridazin-4(1H)-one], for which the IC50 was < 100 nM.
In the case of `CCCOC(=O)Nc1cccc(Cc2nn(-c3ccn(C)n3)ccc2=O)c1` [Example 27, propyl (3-{[1-(1-methyl-1H-pyrazol-3-yl)-4-oxo-1,4-dihydropyridazin-3-yl]methyl}phenyl)carbamate], the IC50 was 100 to 1000 nM.
`CCOc1ccnc(-c2cccc(C(C)c3nn(-c4cnn(C)c4)ccc3=O)c2)n1` (racemic) [Example 678, rac-3-{1-[3-(4-Ethoxypyrimidin-2-yl)phenyl]ethyl}-1-(1-methyl-1H-pyrazol-4-yl)pyridazin-4(1H)-one]: the IC50 was < 100 nM.
Consider `CC1CCC(=O)N1[C@@H](C)COC(=O)Nc1cccc(Cc2nn(-c3cnn(C)c3)ccc2=O)c1` (single isomer, unassigned) [Example 610, (2S)-2-[(2R or S)-2-methyl-5-oxopyrrolidin-1-yl]propyl (3-{[1-(1-methyl-1H-pyrazol-4-yl)-4-oxo-1,4-dihydropyridazin-3-yl]methyl}phenyl)carbamate], for which the IC50 was < 100 nM.
For `COCc1cnc(-c2cccc(C(C)c3nn(-c4cnn(C)c4)ccc3=O)c2)nc1` (single isomer, unassigned) [Example 219, 3-((1S or R)-1-{3-[5-(methoxymethyl)pyrimidin-2-yl]phenyl}ethyl)-1-(1-methyl-1H-pyrazol-4-yl)pyridazin-4(1H)-one], the IC50 lay in the range of 100 to 1000 nM.
`CC(c1cccc(-c2ncc(O[C@H]3CCNC[C@H]3F)cn2)c1)c1nn(-c2cnn(C)c2)ccc1=O` (some centres unmarked) [Example 344]: the IC50 is < 100 nM.
On to `Cn1cc(-n2ccc(=O)c(Cc3cccc(-c4ncn(CCCC5OCC(C)(C)CO5)n4)c3)n2)cn1` [Example 720, 3-(3-{1-[3-(5,5-dimethyl-1,3-dioxan-2-yl)propyl]-1H-1,2,4-triazol-3-yl}benzyl)-1-(1-methyl-1H-pyrazol-4-yl)pyridazin-4(1H)-one], for which the IC50 was < 100 nM.
As for `CN(C)CCCc1cnc(-c2cccc(Cc3nn(-c4cnn(C)c4)ccc3=O)c2)nc1` [Example 438, 3-(3-{5-[3-(dimethylamino)propyl]pyrimidin-2-yl}benzyl)-1-(1-methyl-1H-pyrazol-4-yl)pyridazin-4(1H)-one], the figure is < 100 nM; as for `CCOC(=O)Nc1cccc(Cc2nn(-c3cnn(CC4CCOCC4)c3)ccc2=O)c1` [Example 100, ethyl [3-({4-oxo-1-[1-(tetrahydro-2H-pyran-4-ylmethyl)-1H-pyrazol-4-yl]-1,4-dihydropyridazin-3-yl}methyl)phenyl]carbamate], 100 to 1000 nM; as for `CCn1cc(-n2ccc(=O)c(C(C)c3cccc(-c4ncc(O)cn4)c3)n2)cn1` (single isomer, unassigned) [Example 257, 1-(1-ethyl-1H-pyrazol-4-yl)-3-{(1S or R)-1-[3-(5-hydroxypyrimidin-2-yl)phenyl]ethyl}pyridazin-4(1H)-one], 1000 to 3000 nM.
For the compound `Cc1cc(COc2cnc(-c3cccc(Cc4nn(-c5cnn(C)c5)ccc4=O)c3)nc2)no1` [Example 285, 3-(3-{5-[(5-methylisoxazol-3-yl)methoxy]pyrimidin-2-yl}benzyl)-1-(1-methyl-1H-pyrazol-4-yl)pyridazin-4(1H)-one], the IC50 was < 100 nM.
On to `CCn1cc(-n2ccc(=O)c(C(C)c3cccc(-c4ncc(OCCOC)cn4)c3)n2)cn1` (single isomer, unassigned) [Example 247, 1-(1-ethyl-1H-pyrazol-4-yl)-3-((1S or R)-1-{3-[5-(2-methoxyethoxy)primidin-2-yl]phenyl}ethyl)pyridazin-4(1H)-one], for which the IC50 was in the range of 100 to 1000 nM.
As for `Cn1cc(-n2ccc(=O)c(Cc3cccc(-c4ncc(OCC5COCCO5)cn4)c3)n2)cn1` (single isomer, unassigned) [Example 348, 3-(3-{5-[(2S or R)-1,4-dioxan-2-ylmethoxy]pyrimidin-2-yl}benzyl)-1-(1-methyl-1H-pyrazol-4-yl)pyridazin-4(1H)-one], the figure is < 100 nM.
`CCOc1cnc(-c2cccc(Cc3nn(-c4cnn(CCO)c4)ccc3=O)c2)nc1` [Example 193, 3-[3-(5-ethoxypyrimidin-2-yl)benzyl]-1-[1-(2-hydroxyethyl)-1H-pyrazol-4-yl]pyridazin-4(1H)-one]: the IC50 is < 100 nM.
As for `CCN(CC)CCCOC(=O)Nc1cccc(Cc2nn(-c3cnn(C)c3)ccc2=O)c1` [Example 571, 3-(diethylamino)propyl (3-{[1-(1-methyl-1H-pyrazol-4-yl)-4-oxo-1,4-dihydropyridazin-3-yl]methyl}phenyl)carbamate], the IC50 is < 100 nM.
Consider `COc1cnc(-c2cccc(C(C)c3nn(-c4cnn(C)c4)ccc3=O)c2)nc1` (single isomer, unassigned) [Example 204, 3-{(1R or S)-1-[3-(5-methoxypyrimidin-2-yl)phenyl]ethyl}-1-(1-methyl-1H-pyrazol-4-yl)pyridazin-4(1H)-one], for which the half-maximal inhibitory concentration (IC50) is < 100 nM.
For the compound `Cn1cc(-c2cnc(-c3cccc(Cc4nn(-c5cc(F)cc(C#N)c5)ccc4=O)c3)nc2)cn1` [Example 155, 3-fluoro-5-[3-{3-[5-(1-methyl-1H-pyrazol-4-yl)pyrimidin-2-yl]benzyl}-4-oxopyridazin-1(4H)-yl]benzonitrile], the 50% inhibitory concentration (IC50) was < 100 nM.
On to `Cn1cc(-n2ccc(=O)c(Cc3cccc(-c4ncc(-c5cnn(C6COC6)c5)cn4)c3)n2)cn1` [Example 435, 1-(1-Methyl-1H-pyrazol-4-yl)-3-{3-[5-(1-oxetan-3-yl-1H-pyrazol-4-yl)pyrimidin-2-yl]benzyl}pyridazin-4(1H)-one], for which the IC50 is < 100 nM.
As for `CCn1cc(-n2ccc(=O)c(C(C)c3cccc(-c4ncc(OC5CCOC5)cn4)c3)n2)cn1` (single isomer, unassigned) [Example 297, 1-(1-ethyl-1H-pyrazol-4-yl)-3-[(1R or S)-1-{3-[5-(tetrahydrofuran-3-yloxy)pyrimidin-2-yl]phenyl}ethyl]pyridazin-4(1H)-one], the IC50 was < 100 nM.
With `CCn1cc(-n2ccc(=O)c(Cc3cccc(-c4ncc(OC5CN(C(=O)OC(C)(C)C)C5)cn4)c3)n2)cn1` [Example 289, tert-butyl 3-{[2-(3-{[1-(1-ethyl-1H-pyrazol-4-yl)-4-oxo-1,4-dihydropyridazin-3-yl]methyl}phenyl)pyrimidin-5-yl]oxy}azetidine-1-carboxylate], the half-maximal inhibitory concentration (IC50) is < 100 nM.

For orientation: IC50 means the concentration at which inhibition is half-maximal.
